Experimental data: ChEMBL document CHEMBL1201862, “PubChem BioAssay data set” (2004)
Calls of active or inactive are those of the source.

Tests used:
[1] = biological target: T1, Mannose-6-phosphate isomerase (Homo sapiens, UniProt P34949); assay: inhibitors of human PMI, primary screen, biochemical, fluorescence intensity, coupled assay (AID 1209)
T1 sequence (P34949 whole entry): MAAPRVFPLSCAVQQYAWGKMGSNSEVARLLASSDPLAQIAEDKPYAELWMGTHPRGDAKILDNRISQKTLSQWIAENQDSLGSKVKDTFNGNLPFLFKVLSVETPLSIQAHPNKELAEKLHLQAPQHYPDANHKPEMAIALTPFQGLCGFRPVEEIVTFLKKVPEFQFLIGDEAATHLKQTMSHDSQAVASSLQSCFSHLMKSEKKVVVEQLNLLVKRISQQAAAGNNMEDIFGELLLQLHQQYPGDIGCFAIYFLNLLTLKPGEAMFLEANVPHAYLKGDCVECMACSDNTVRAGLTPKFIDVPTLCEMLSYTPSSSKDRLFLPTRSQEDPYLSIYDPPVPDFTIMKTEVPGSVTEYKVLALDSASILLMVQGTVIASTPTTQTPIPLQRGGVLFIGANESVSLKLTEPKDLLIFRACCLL

[2] = Fluorescence-based biochemical high throughput screening dose response assay to identify inhibitors of Crimean-Congo Hemorrhagic Fever (CCHF) viral ovarian tumor domain protease (vOTU): Pep-AMC substrate.
[3] = biological target: Serine/threonine-protein phosphatase PP1-alpha catalytic subunit (Homo sapiens, UniProt P62136); assay: PP1 phosphatase inhibitors, dose response, biochemical, fluorescence (AID 2394)
[4] = biological target: T2, Heat shock factor protein 1 (Mus musculus, UniProt P38532); assay: inhibition of MG132-induced HSE-luciferase signal, confirmation, cell-based, NIH3T3, luminescence, dose retest (AID 2382); format: functional;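 note: NIH3T3 fibroblasts with HSF1-driven luciferase reporter stressed by proteasome inhibitor MG132; luminescence from HSF1-driven luciferase expression after 8 hours of MG132 stress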
T2 sequence (P38532 whole entry): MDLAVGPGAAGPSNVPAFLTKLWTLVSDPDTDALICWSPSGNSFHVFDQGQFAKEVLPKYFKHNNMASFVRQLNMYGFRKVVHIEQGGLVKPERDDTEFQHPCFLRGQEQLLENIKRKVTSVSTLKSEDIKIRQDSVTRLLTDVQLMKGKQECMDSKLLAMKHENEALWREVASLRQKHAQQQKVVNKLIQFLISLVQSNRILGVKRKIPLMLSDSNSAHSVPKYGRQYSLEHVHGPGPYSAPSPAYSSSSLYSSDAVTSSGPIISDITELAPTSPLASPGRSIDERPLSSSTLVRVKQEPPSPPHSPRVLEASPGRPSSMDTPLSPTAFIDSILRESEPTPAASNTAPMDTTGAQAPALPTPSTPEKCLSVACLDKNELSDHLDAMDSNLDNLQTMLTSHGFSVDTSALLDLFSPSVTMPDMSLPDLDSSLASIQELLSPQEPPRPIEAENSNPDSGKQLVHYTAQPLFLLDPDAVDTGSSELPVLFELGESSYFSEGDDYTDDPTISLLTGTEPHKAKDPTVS

[5] = inhibitors of SNCA 5'UTR-driven reporter translation, confirmation, H4 neuroglioma cells, luminescence (AID 1988); format: functional, cell-based
[6] = biological target: Tyrosine-protein kinase JAK2 (Homo sapiens, UniProt O60674); format: functional;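 note: JAK2 tested as one member of a kinase panel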
[7] = biological target: Serine/threonine-protein kinase PLK3 (Homo sapiens, UniProt Q9H4B4); format: functional
[8] = biological target: ALK tyrosine kinase receptor (Homo sapiens, UniProt Q9UM73); format: functional;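 note: ALK tested as one member of a kinase panel screen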
[9] = biological target: Tyrosine-protein kinase receptor TYRO3 (Homo sapiens, UniProt Q06418); format: functional;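 note: TYRO3 value obtained as one member of a kinome-wide profiling panel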
[10] = biological target: MAP kinase-activated protein kinase 2 (Homo sapiens, UniProt P49137); format: functional;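 note: measured as one member of a kinome-wide kinase panel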
[11] = biological target: Calcium/calmodulin-dependent protein kinase type II subunit delta (Homo sapiens, UniProt Q13557); format: functional
[12] = biological target: Casein kinase I isoform alpha (Homo sapiens, UniProt P48729); format: functional
[13] = biological target: Casein kinase I isoform gamma-1 (Homo sapiens, UniProt Q9HCP0); format: functional;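 note: measured as the CSNK1G1 member of a kinome profiling panel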
[14] = biological target: Mitogen-activated protein kinase 9 (Homo sapiens, UniProt P45984); format: functional;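 note: value from a kinome panel profiling assay, MAPK9 panel entry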
[15] = biological target: Tyrosine-protein kinase ITK/TSK (Homo sapiens, UniProt Q08881); format: functional;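 note: affinity for ITK measured as one member of a broad kinase panel profiling binding across the kinome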
[16] = biological target: Proto-oncogene tyrosine-protein kinase ROS (Homo sapiens, UniProt P08922); format: functional;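 note: ROS1 tested as one member of a kinome-wide kinase panel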
[17] = biological target: Testis-specific serine/threonine-protein kinase 1 (Homo sapiens, UniProt Q9BXA7); format: functional
[18] = biological target: Mitogen-activated protein kinase kinase kinase 20 (Homo sapiens, UniProt Q9NYL2); format: functional
[19] = biological target: Proto-oncogene tyrosine-protein kinase Src (Homo sapiens, UniProt P12931); format: functional;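 note: SRC entry within a kinome-wide kinase profiling panel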
[20] = biological target: Dual specificity tyrosine-phosphorylation-regulated kinase 3 (Homo sapiens, UniProt O43781); format: functional;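 note: measured as one member of a broad kinase panel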
[21] = biological target: Receptor tyrosine-protein kinase erbB-2 (Homo sapiens, UniProt P04626); assay: Navigating the Kinome. Panel member name: ERBB2; format: functional
[22] = biological target: MAP kinase-activated protein kinase 3 (Homo sapiens, UniProt Q16644); format: functional;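 note: value comes from a kinome-wide profiling panel in which MAPKAPK3 is one of the panel members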
[23] = biological target: Casein kinase I isoform delta (Homo sapiens, UniProt P48730); format: functional;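 note: measured as one member (CSNK1D) of a kinome panel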
[24] = biological target: G protein-coupled receptor kinase 5 (Homo sapiens, UniProt P34947); assay: Navigating the Kinome. Panel member name: GPRK5; format: functional
[25] = biological target: Cyclin-dependent kinase 5 (Homo sapiens, UniProt Q00535); format: functional;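 note: CDK5 measured as one member of a kinase profiling panel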
[26] = biological target: Dual specificity tyrosine-phosphorylation-regulated kinase 4 (Homo sapiens, UniProt Q9NR20); format: functional
[27] = biological target: 3-phosphoinositide-dependent protein kinase 1 (Homo sapiens, UniProt O15530); format: functional;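 note: value comes from the Navigating the Kinome panel, PDPK1 member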
[28] = biological target: Serine/threonine-protein kinase PLK1 (Homo sapiens, UniProt P53350); format: functional;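 note: PLK1 measured as one member of a kinome-wide profiling panel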
[29] = biological target: Cyclin-dependent kinase 9 (Homo sapiens, UniProt P50750); format: functional;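 note: value from the CDK9 entry of a kinome-spanning kinase panel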
[30] = biological target: BDNF/NT-3 growth factors receptor (Homo sapiens, UniProt Q16620); format: functional;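 note: NTRK2 measured as one member of a broad kinome-wide kinase profiling panel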
[31] = biological target: Serine/threonine-protein kinase 3 (Homo sapiens, UniProt Q13188); format: functional;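 note: measured as one member of a kinome-wide kinase panel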
HEK293 = assay: inhibitors of LMP1-driven NF-kB reporter, dose response, cell-based, HEK293, luciferase, cherry-pick (AID 588343); format: functional; conditions: Homo sapiens

Chain of BDNF/NT-3 growth factors receptor (Q16620 whole entry): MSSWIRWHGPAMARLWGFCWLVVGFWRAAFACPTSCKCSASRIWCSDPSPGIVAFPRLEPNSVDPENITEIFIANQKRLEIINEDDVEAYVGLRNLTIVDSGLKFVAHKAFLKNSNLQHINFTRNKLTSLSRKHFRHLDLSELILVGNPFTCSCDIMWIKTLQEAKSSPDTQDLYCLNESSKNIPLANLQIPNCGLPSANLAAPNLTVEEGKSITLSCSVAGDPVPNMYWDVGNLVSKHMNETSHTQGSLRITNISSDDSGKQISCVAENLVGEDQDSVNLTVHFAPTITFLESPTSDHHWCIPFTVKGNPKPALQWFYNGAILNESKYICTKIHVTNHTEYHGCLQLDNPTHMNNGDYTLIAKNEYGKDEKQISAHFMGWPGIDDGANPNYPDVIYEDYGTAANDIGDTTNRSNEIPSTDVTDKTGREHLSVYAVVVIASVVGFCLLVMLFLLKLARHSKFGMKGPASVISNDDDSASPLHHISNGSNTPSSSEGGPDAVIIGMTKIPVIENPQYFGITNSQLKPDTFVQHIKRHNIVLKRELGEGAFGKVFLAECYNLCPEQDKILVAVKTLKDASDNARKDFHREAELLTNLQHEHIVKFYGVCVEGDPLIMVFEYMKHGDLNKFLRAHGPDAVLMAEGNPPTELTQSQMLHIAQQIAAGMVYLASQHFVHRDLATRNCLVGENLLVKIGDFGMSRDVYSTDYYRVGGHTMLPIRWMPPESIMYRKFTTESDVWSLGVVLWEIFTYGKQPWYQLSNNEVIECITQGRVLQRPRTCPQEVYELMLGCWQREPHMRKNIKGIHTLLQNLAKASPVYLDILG
Chain of ALK tyrosine kinase receptor (Q9UM73 whole entry): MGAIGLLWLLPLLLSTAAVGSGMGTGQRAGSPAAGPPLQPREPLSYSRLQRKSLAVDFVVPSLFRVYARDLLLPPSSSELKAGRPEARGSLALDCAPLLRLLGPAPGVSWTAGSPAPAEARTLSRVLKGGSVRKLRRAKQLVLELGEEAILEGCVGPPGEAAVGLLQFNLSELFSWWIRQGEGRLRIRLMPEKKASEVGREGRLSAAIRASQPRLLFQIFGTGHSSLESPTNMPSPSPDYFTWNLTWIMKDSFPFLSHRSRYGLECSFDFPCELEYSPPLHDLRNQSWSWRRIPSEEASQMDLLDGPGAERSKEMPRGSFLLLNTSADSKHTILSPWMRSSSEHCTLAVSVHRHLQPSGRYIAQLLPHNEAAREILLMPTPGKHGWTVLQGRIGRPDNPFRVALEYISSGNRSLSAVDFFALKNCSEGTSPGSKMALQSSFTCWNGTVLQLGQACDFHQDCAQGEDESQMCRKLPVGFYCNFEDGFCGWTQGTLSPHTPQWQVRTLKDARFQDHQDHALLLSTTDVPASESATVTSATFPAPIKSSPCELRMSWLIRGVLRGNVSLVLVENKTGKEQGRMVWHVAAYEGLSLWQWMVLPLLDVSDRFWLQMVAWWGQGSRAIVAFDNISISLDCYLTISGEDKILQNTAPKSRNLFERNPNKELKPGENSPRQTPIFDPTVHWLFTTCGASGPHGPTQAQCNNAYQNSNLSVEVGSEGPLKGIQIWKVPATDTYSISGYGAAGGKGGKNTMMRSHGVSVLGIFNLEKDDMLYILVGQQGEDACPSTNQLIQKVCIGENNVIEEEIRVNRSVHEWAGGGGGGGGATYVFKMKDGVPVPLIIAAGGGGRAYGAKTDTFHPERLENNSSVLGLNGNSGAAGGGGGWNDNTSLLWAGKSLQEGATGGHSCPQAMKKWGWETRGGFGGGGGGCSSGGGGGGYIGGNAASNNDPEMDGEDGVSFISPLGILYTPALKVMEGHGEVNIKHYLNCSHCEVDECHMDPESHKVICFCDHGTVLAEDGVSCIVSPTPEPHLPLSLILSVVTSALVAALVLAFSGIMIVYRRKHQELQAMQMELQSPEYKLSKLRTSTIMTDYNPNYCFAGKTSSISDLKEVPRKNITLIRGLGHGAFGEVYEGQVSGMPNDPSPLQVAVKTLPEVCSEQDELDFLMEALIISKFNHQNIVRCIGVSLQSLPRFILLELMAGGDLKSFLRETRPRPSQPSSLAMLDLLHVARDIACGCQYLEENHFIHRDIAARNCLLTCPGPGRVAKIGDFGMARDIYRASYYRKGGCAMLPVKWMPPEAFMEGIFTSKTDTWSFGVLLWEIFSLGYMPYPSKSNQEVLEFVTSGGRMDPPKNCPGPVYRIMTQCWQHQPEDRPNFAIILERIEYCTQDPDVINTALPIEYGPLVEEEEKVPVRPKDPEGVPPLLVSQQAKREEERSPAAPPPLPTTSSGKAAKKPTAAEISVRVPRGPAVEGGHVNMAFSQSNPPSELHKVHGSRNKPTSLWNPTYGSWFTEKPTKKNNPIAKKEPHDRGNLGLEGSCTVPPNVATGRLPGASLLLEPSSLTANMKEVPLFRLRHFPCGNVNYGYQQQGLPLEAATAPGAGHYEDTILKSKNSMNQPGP
Chain of Cyclin-dependent kinase 9 (P50750 whole entry): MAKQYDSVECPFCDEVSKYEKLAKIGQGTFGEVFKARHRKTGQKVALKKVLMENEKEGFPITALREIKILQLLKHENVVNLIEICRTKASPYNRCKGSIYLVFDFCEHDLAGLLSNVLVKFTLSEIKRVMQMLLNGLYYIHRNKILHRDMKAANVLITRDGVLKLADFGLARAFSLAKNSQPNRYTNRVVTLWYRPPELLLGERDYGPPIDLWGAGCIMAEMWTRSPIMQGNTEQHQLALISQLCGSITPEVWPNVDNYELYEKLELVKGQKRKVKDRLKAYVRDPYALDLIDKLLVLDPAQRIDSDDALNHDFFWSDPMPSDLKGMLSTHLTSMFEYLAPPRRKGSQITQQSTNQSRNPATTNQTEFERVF
Chain of Casein kinase I isoform delta (P48730 whole entry, canonical isoform): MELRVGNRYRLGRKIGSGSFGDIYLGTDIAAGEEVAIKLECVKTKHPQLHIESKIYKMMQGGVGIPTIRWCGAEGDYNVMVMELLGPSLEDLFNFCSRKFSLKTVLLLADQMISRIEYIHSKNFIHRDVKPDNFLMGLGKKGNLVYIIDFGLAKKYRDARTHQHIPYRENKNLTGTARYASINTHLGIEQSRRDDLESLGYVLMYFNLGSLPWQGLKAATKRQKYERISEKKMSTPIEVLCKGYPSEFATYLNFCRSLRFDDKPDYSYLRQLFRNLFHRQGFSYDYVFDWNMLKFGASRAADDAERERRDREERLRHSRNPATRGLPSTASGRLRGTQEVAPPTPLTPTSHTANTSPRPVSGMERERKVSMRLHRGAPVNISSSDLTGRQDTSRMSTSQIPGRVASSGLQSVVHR
Chain of Serine/threonine-protein kinase 3 (Q13188 whole entry): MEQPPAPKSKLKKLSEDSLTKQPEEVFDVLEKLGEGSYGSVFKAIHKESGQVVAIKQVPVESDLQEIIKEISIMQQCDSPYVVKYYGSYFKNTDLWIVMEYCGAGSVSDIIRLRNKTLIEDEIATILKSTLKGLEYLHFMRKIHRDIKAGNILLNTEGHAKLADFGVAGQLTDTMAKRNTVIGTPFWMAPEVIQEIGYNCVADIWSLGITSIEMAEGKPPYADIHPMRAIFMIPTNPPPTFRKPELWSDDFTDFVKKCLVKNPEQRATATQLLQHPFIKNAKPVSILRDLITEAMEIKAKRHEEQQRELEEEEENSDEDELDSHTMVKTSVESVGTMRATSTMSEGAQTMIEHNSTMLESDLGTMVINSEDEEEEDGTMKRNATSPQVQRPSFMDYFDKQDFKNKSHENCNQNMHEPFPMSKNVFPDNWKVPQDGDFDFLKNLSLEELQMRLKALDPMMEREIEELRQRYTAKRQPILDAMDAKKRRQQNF
Chain of Calcium/calmodulin-dependent protein kinase type II subunit delta (Q13557 whole entry, canonical isoform): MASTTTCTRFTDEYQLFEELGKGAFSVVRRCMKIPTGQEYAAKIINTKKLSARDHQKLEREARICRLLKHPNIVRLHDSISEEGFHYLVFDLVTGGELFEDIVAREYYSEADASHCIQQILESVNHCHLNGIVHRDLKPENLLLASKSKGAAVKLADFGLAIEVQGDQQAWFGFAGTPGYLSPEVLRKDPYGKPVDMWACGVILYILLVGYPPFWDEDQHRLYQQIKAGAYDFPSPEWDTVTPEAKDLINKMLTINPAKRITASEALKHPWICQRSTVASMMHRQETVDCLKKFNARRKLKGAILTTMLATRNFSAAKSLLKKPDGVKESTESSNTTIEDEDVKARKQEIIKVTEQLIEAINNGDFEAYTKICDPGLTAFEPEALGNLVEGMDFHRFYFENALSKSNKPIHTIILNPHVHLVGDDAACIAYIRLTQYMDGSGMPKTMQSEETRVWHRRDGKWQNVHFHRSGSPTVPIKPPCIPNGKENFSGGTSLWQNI
Chain of Mitogen-activated protein kinase 9 (P45984 whole entry): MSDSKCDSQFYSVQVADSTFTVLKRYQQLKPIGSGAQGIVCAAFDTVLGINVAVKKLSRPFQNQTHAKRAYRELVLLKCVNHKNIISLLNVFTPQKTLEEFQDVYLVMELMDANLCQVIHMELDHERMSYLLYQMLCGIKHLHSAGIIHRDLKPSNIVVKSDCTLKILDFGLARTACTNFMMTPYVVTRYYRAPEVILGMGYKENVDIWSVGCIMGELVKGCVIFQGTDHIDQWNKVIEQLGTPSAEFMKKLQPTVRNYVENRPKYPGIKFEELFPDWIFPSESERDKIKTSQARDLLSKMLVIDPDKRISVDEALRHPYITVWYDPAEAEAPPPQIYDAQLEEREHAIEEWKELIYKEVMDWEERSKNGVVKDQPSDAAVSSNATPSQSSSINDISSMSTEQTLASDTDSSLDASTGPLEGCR
Chain of Testis-specific serine/threonine-protein kinase 1 (Q9BXA7 whole entry): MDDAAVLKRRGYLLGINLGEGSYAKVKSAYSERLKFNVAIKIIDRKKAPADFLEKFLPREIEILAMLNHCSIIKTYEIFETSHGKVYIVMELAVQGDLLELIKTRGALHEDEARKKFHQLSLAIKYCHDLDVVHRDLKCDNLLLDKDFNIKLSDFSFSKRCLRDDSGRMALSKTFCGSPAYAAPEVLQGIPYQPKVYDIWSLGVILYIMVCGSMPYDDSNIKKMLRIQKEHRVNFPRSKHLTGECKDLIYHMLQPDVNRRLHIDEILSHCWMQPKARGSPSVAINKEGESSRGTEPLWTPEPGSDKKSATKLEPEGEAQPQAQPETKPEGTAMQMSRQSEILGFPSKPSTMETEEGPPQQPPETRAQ

In the case of `CC(C)N(C(=O)Nc1ccc2nsnc2c1)C(C)C`, the IC50 [1] is reported as > 50000 nM (not active) and the IC50 [2] is reported as > 4250 nM (active).
In the case of `NS(=O)(=O)c1ccc(NC2=CC(=O)C(=O)c3ccccc32)cc1`, the IC50 [3] is reported as 38900 nM (not active), the EC50 [4] is reported as > 195000 nM (not active) and the EC50 [5] is reported as 8450 nM (active).
In the case of `Clc1cc(-c2c[nH]c3ncccc23)nc(NC2CCCCC2)n1`, the Ki [6] is reported as > 2510 nM (inactive), the Ki [7] is reported as > 7940 nM (inactive) and the Ki [8] is reported as > 3980 nM (inactive). For the same compound, the Ki [9] was > 2510 nM (inactive), the Ki [10] was > 7940 nM (inactive) and the Ki [11] was > 1260 nM (inactive). For the same compound, the Ki [12] was 1580 nM (active), the Ki [13] was 126 nM (active) and the Ki [14] was 3160 nM (active). For the same compound, the Ki [15] was 1260 nM (active), the Ki [16] was > 2000 nM (inactive) and the Ki [17] was > 1580 nM (inactive). For the same compound, the Ki [18] was > 7940 nM (inactive), the Ki [19] was > 2000 nM (inactive) and the Ki [20] was 7.94 nM (active). For the same compound, the Ki [21] was > 1580 nM (inactive), the Ki [22] was > 10000 nM (inactive) and the Ki [23] was 63.1 nM (active). The Ki [24] was > 3980 nM (inactive), the Ki [25] was 126 nM (active) and the Ki [26] was 501 nM (active). For the same compound, the Ki [27] was > 3980 nM (inactive), the Ki [28] was 501 nM (active) and the Ki [29] was > 794 nM (inactive). For the same compound, the Ki [30] was 2000 nM (active) and the Ki [31] was > 1580 nM (inactive).
With `O=C(N/N=C/c1ccc(O)cc1O)c1ccc(CN2C(=O)c3cccc4cccc2c34)cc1` the AC50 (HEK293) was 6460 nM (active).
